Data: US20250388574A1, “HETEROCYCLIC COMPOUNDS AS TRIGGERING RECEPTOR EXPRESSED ON MYELOID CELLS 2 AGONISTS AND METHODS OF USE” (AMGEN INC., priority 2020, published 2025)

Target: hTREM2 (Homo sapiens, UniProt Q9NZC2)
Test: Phospho-Syk AlphaScreen/AlphaLISA assay in TREM2 and DAP12 overexpressing HEK293 cells (Example A1)
Type: cell-based
Set-up: expressed in transfected cells
Details: HEK293 cells; for EC50: read-out: hTREM2 EC50
Description: Pharmacological measurements of TREM2 signaling through DAP12 were made with TREM2 and DAP12 overexpressing HEK293 cells stable cell lines that had been single-cell cloned (“TREM2/DAP12-HEK”). The readout of the TREM2 signaling utilized Perkin Elmer AlphaScreen/AlphaLISA technology monitoring the phosphorylation levels of the Syk kinase. TREM2/DAP12-HEK cell lines were cultured in DMEM-F12 (Corning 10-092-CM) supplemented with 1× Penicillin/Streptomycin (Corning 30-002-CI), 1× GlutaMAX (Gibco 35050-061), and 10% Fetal Bovine Serum (Life Technologies 10099) referred to as “HEK Culture Medium”. Suspensions of TREM2/DAP12-HEK cells were prepared in HEK Culture Medium and dispensed into 384-well poly-D-lysine coated microplates (Corning 354661) at a density of 20,000 cells/well using a Multidrop Combi peristaltic microplate dispenser (Thermo), 25 uL volume of cell suspension/well. Plates containing cells were then incubated for 20 hours in a humidified cell culture incubator at 37° C. with 5% CO2 (Thermo). […] Assay Buffer contained diluted test articles (in 1% final DMSO concentration for compounds) or 100 nM anti-human/mouse TREM2 antibody (R&D Systems MAB17291) as a positive control, 100 nM or rat IgG2B isotype Ab as a negative control (R&D Systems MAB0061). Incubated the plates with test articles and controls for 45 minutes at room temperature and then aspirated/removed the medium from each well of the plates. Used a Multidrop Combi peristaltic liquid handler (Thermo) to dispense 15 uL/well of “Cell Lysis Immunoassay Buffer”. The Cell Lysis Immunoassay Buffer contained M-PER Mammalian Protein Extraction Reagent (Pierce/ThermoFisher 78505), 1× Halt Phosphatase Inhibitor Cocktail (ThermoFisher #78427), 0.1875 nM anti-phospho-Syk ([…]/526) ([…]) rabbit mAb (Cell Signaling Technologies catalog #2710), and 1.5 nM biotinylated Mouse anti-human Syk (4D10) antibody (BD Biosciences, catalog #624008). Incubated plates for 1 hour at room temperature after the addition of the Cell Lysis Immunoassay Buffer. Used the Multidrop Combi liquid handler to dispense 15 μL of AlphaScreen Acceptor Bead Solution containing 7.5 μg/mL anti-rabbit IgG (Fc specific) AlphaLISA Acceptor Beads (Perkin Elmer A[…]) in 1× Immunoassay buffer (Perkin Elmer A[…]) to each well of the microplates. Incubated plates for 2 hours at room temperature. Following the incubation with the AlphaLISA Acceptor Bead Solution, used a Multidrop Combi liquid handler (Thermo) to dispense 15 μL of AlphaScreen Donor Bead Solution containing 30 μg/mL of AlphaScreen Streptavidin Donor beads (Perkin Elmer 6760002B) in 1× Immunoassay buffer (Perkin Elmer A[…]) to each well of the microplates. Incubated microplates for 2 hours protected from light sources as the AlphaScreen reagents are light sensitive. Once the final incubation was completed, acquired AlphaScreen signal from the donor and acceptor beads using an Envision high throughput multi-modal microplate reader (Perkin Elmer) calibrated to the plate type with the AlphaScreen mirror and filter-set in 384-well mode, 680 nanometer excitation wavelength. The total measurement time per well was 550 milliseconds with a 180 millisecond excitation time. After reading the AlphaScreen signal for each well of the microplates, on a plate-by-plate basis, each raw test article well value (x) was normalized to a Percent of Control (“POC”) value using the following formula: […] Each plate contained 12 of each type of control wells that were used to generate the mean values. For concentration response curve analysis with test articles tested at various concentrations, the % of activation values were analyzed with 4 Parameter Logistic or Sigmoidal Dose-Response Models using GeneData Screener (GeneData, AG) or GraphPad Prism 7 (Graphpad Software, Inc.). […] This assay may be used to test any of the compounds described herein to assess and characterize a compound's ability to act as an agonist of TREM2.

Chain of hTREM2 (Q9NZC2 19-230): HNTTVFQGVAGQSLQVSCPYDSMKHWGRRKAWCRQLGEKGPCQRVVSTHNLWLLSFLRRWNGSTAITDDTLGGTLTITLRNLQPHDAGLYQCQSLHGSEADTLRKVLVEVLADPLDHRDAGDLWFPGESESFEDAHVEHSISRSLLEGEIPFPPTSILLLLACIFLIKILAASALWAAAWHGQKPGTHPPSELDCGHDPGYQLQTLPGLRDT
Chain of hTREM2 (O43914 22-113 partner): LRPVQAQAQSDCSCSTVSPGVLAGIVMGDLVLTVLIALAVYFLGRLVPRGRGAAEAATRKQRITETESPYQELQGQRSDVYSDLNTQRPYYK

| SMILES | Emax | EC50 [nM] |
| --- | --- | --- |
| Cc1nc2cc(N3CCO[C@@H](c4noc(C5CC5)n4)C3)nc(-c3ccc(Cl)cc3F)c2c(=O)n1C (single isomer, unassigned) [Example 84] | ++++ (Emax>300) | 500 to 3000 |
| Cc1nc2cc(N3CCO[C@H](c4noc(C5CC5)n4)C3)nc(-c3ccc(Cl)cc3F)c2c(=O)n1C (single isomer, unassigned) [Example 85] | ++++ (Emax>300) | 3000 to 100000 |
| Cc1nc2cc(N3CCO[C@H](c4ccc(Cl)cc4)C3)nc(-c3ccc(Cl)cc3F)c2c(=O)n1C (single isomer, unassigned) [Example 86] | ++++ (Emax>300) | 500 to 3000 |
| Cc1nc2cc(N3CCO[C@@H](c4ccc(Cl)cc4)C3)nc(-c3ccc(Cl)cc3F)c2c(=O)n1C (single isomer, unassigned) [Example 87] | ++++ (Emax>300) | 500 to 3000 |
| Cc1nc2cc(N3CCO[C@H](c4ccnc(Cl)c4)C3)nc(-c3ccc(Cl)cc3F)c2c(=O)n1C (single isomer, unassigned) [Example 88] | +++ (Emax>200 and ≤300) | 500 to 3000 |
| Cc1nc2cc(N3CCO[C@@H](c4cccc(C(F)(F)F)c4)C3)nc(-c3ccc(Cl)cc3F)c2c(=O)n1C (single isomer, unassigned) [Example 91] | ++ (Emax>100 and ≤200) | 500 to 3000 |
| Cc1nc2cc(N3CCO[C@@H](c4ccnc(OCC(F)(F)F)c4)C3)nc(-c3ccc(Cl)cc3F)c2c(=O)n1C (single isomer, unassigned) [Example 96] | ++++ (Emax>300) | 500 to 3000 |
| Cc1nc2cc(N3CCO[C@H](c4cccc(OC(F)(F)F)c4)C3)nc(-c3ccc(Cl)cc3F)c2c(=O)n1C (single isomer, unassigned) [Example 97] | ++++ (Emax>300) | 500 to 3000 |
| Cc1nc2cc(N3CCO[C@@H](c4cccc(OC(F)(F)F)c4)C3)nc(-c3ccc(Cl)cc3F)c2c(=O)n1C (single isomer, unassigned) [Example 98] | +++ (Emax>200 and ≤300) | 3000 to 100000 |
| Cc1nc2cc(N3CCC[C@H](c4cn[nH]c4)C3)nc(-c3ccc(Cl)cc3F)c2c(=O)n1C (single isomer, unassigned) [Example 108] | ++++ (Emax>300) | 50 to 500 |
| Cc1noc([C@@H]2CCCN(c3cc4nc(C)n(C)c(=O)c4c(-c4ccc(Cl)cc4F)n3)C2)n1 (single isomer, unassigned) [Example 111] | ++++ (Emax>300) | 50 to 500 |
| Cc1noc([C@H]2CCCN(c3cc4nc(C)n(C)c(=O)c4c(-c4ccc(Cl)cc4F)n3)C2)n1 (single isomer, unassigned) [Example 112] | +++ (Emax>200 and ≤300) | 3000 to 100000 |
| Cc1nc2cc(N3CCC[C@@H](c4ccncc4)C3)nc(-c3ccc(Cl)cc3F)c2c(=O)n1C (single isomer, unassigned) [Example 113] | ++++ (Emax>300) | 50 to 500 |
| Cc1nc2cc(N3CCC[C@H](c4ccncc4)C3)nc(-c3ccc(Cl)cc3F)c2c(=O)n1C (single isomer, unassigned) [Example 114] | +++ (Emax>200 and ≤300) | 50 to 500 |
| Cc1nc2cc(N3CCC(F)(F)[C@@H](c4cnn(C)c4)C3)nc(-c3ccc(Cl)cc3F)c2c(=O)n1C (single isomer, unassigned) [Example 118] | +++ (Emax>200 and ≤300) | 50 to 500 |
| Cc1ccc([C@H]2CN(c3cc4nc(C)n(C)c(=O)c4c(-c4ccc(Cl)cc4F)n3)CCO2)cn1 (single isomer, unassigned) [Example 139] | ++++ (Emax>300) | 50 to 500 |
| Cc1ccc([C@@H]2CN(c3cc4nc(C)n(C)c(=O)c4c(-c4ccc(Cl)cc4F)n3)CCO2)cn1 (single isomer, unassigned) [Example 140] | ++++ (Emax>300) | 50 to 500 |
| Cc1nc2cc([C@@H]3CCO[C@H](c4cnn(C)c4)C3)nc(-c3ccc(Cl)cc3F)c2c(=O)n1C (single isomer, unassigned) [Example 163] | +++ (Emax>200 and ≤300) | 3000 to 100000 |
| Cc1nc2cc([C@@H]3CCO[C@H](c4cnn(C5CC5)c4)C3)nc(-c3ccc(Cl)cc3F)c2c(=O)n1C (single isomer, unassigned) [Example 166] | +++ (Emax>200 and ≤300) | 500 to 3000 |
| Cc1cc([C@@H]2C[C@H](c3cc4nc(C)n(C)c(=O)c4c(-c4ccc(Cl)cc4F)n3)CCO2)ccn1 (single isomer, unassigned) [Example 170] | +++ (Emax>200 and ≤300) | 500 to 3000 |
| COc1cc([C@@H]2C[C@H](c3cc4nc(C)n(C)c(=O)c4c(-c4ccc(Cl)cc4F)n3)CCO2)ccn1 (single isomer, unassigned) [Example 173] | +++ (Emax>200 and ≤300) | 500 to 3000 |

The remaining lines, values ahead:

| Emax | EC50 [nM] | SMILES |
| --- | --- | --- |
| ++++ (Emax>300) | 50 to 500 | COc1cc([C@@H]2CN(c3cc4nc(C)n(C)c(=O)c4c(-c4ccc(Cl)cc4F)n3)CCO2)ccn1 (single isomer, unassigned) [Example 83] |
| ++++ (Emax>300) | 50 to 500 | Cc1nc2cc(N3CCO[C@@H](c4ccnc(Cl)c4)C3)nc(-c3ccc(Cl)cc3F)c2c(=O)n1C (single isomer, unassigned) [Example 89] |
| ++++ (Emax>300) | 50 to 500 | Cc1nc2cc(N3CCO[C@H](c4cccc(C(F)(F)F)c4)C3)nc(-c3ccc(Cl)cc3F)c2c(=O)n1C (single isomer, unassigned) [Example 92] |
| ++++ (Emax>300) | 50 to 500 | Cc1nc2cc(N3CCO[C@H](c4ccnc(OCC(F)(F)F)c4)C3)nc(-c3ccc(Cl)cc3F)c2c(=O)n1C (single isomer, unassigned) [Example 95] |
| ++++ (Emax>300) | 50 to 500 | Cc1nc2cc(N3CCC[C@@H](c4cnn(C)c4)C3)nc(-c3ccc(Cl)cc3F)c2c(=O)n1C (single isomer, unassigned) [Example 99] |
| +++ (Emax>200 and ≤300) | 50 to 500 | Cc1nc2cc(N3CCC[C@H](c4cnn(C)c4)C3)nc(-c3ccc(Cl)cc3F)c2c(=O)n1C (single isomer, unassigned) [Example 100] |
| ++++ (Emax>300) | < 50 | Cc1nc2cc(N3CCC[C@@H](c4cn[nH]c4)C3)nc(-c3ccc(Cl)cc3F)c2c(=O)n1C (single isomer, unassigned) [Example 107] |
| +++ (Emax>200 and ≤300) | < 50 | Cc1nc2cc(N3CCC(F)(F)[C@H](c4cnn(C)c4)C3)nc(-c3ccc(Cl)cc3F)c2c(=O)n1C (single isomer, unassigned) [Example 117] |
| +++ (Emax>200 and ≤300) | < 50 | Cc1nc2cc([C@H]3CCO[C@@H](c4cnn(C)c4)C3)nc(-c3ccc(Cl)cc3F)c2c(=O)n1C (single isomer, unassigned) [Example 162] |
| +++ (Emax>200 and ≤300) | < 50 | Cc1nc2cc([C@H]3CCO[C@@H](c4cnn(C5CC5)c4)C3)nc(-c3ccc(Cl)cc3F)c2c(=O)n1C (single isomer, unassigned) [Example 165] |
| +++ (Emax>200 and ≤300) | < 50 | Cc1cc([C@H]2C[C@@H](c3cc4nc(C)n(C)c(=O)c4c(-c4ccc(Cl)cc4F)n3)CCO2)ccn1 (single isomer, unassigned) [Example 169] |
| ++++ (Emax>300) | < 50 | COc1cc([C@H]2C[C@@H](c3cc4nc(C)n(C)c(=O)c4c(-c4ccc(Cl)cc4F)n3)CCO2)ccn1 (single isomer, unassigned) [Example 172] |
